From patent US12495798B2, “Nicotinamide compound and herbicidal composition comprising compound” (KOREA RESEARCH INSTITUTE OF CHEMICAL TECHNOLOGY, priority 2019, dated 2025)

Legend:
Format in all cases: in vivo
[1] = tested on: barnyard grass; experiment: Herbicidal activity test against upland field weeds (soil treatment test); parameters: key to Soil treatment herbicidal activity, barnyard grass: 0 (no control); 100 (complete control); settings: 50 g ai/ha, scale 0 (no control) to 100 (complete control)
In short: (§1)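 Weed control scored visually on a 0 (none) to 100 (complete) scale versus untreated pots at 14 or 21 days in greenhouse (30±5 °C, 14 h light). Test compounds, 50 or 75 g a.i./ha in 50% acetone/0.1% Tween-20, hand-sprayed onto soil one day post-sowing.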

[2] = tested on: quack grass; experiment: as above; parameters: key to Soil treatment herbicidal activity, quack grass: 0 (no control); 100 (complete control); settings: 50 g ai/ha, scale 0 (no control) to 100 (complete control)
In short: as §1

[3] = tested on: fall panicum; experiment: Herbicidal activity test against upland field weeds (foliar treatment test); settings: 50 g ai/ha, scale 0-100
In short: (§2)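 Visual 0–100 control ratings relative to untreated plants, taken 14 (or 21) days after spraying foliage at 50 or 75 g a.i./ha. Spray solution: 50% acetone with 0.1% Tween-20; plants kept in greenhouse at 30±5 °C, 14 h light/10 h dark.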

[4] = tested on: bindweed; experiment: Herbicidal activity test against upland field weeds (soil treatment test); parameters: key to Soil treatment herbicidal activity, Bindweed: 0 (no control); 100 (complete control); settings: 50 g ai/ha, scale 0 (no control) to 100 (complete control)
In short: as §1

[5] = tested on: quack grass; experiment: Herbicidal activity test against upland field weeds (foliar treatment test); parameters: key to Foliar treatment herbicidal activity, quack grass: 0 (no control); 100 (complete control); settings: 50 g ai/ha, scale 0-100
In short: as §2

[6] = tested on: velvetleaf; experiment: Herbicidal activity test against upland field weeds (soil treatment test); parameters: key to Soil treatment herbicidal activity, velvet leaf: 0 (no control); 100 (complete control); settings: 50 g ai/ha, scale 0 (no control) to 100 (complete control)
In short: as §1

[7] = tested on: cocklebur; experiment: Herbicidal activity test against upland field weeds (foliar treatment test); parameters: key to Foliar treatment herbicidal activity, Cocklebur: 0 (no control); 100 (complete control); settings: 50 g ai/ha, scale 0-100
In short: as §2

[8] = tested on: indian jointvetch; experiment: as above; parameters: key to Foliar treatment herbicidal activity, Indian jointvetch: 0 (no control); 100 (complete control); settings: 50 g ai/ha, scale 0-100
In short: as §2

[9] = tested on: fall panicum; experiment: Herbicidal activity test against upland field weeds (soil treatment test); parameters: key to Soil treatment herbicidal activity, Fall panicum: 0 (no control); 100 (complete control); settings: 50 g ai/ha, scale 0 (no control) to 100 (complete control)
In short: as §1

[10] = tested on: black nightshade; experiment: as above; parameters: key to Soil treatment herbicidal activity, black nightshade: 0 (no control); 100 (complete control); settings: 50 g ai/ha, scale 0 (no control) to 100 (complete control)
In short: as §1

[11] = tested on: barnyard grass; experiment: Herbicidal activity test against upland field weeds (foliar treatment test); parameters: key to Foliar treatment herbicidal activity, barnyard grass: 0 (no control); 100 (complete control); settings: 50 g ai/ha, scale 0-100
In short: as §2

[12] = tested on: sorghum; experiment: as above; parameters: key to Foliar treatment herbicidal activity, Sorghum: 0 (no control); 100 (complete control); settings: 50 g ai/ha, scale 0-100
In short: as §2

[13] = tested on: cocklebur; experiment: Herbicidal activity test against upland field weeds (soil treatment test); parameters: key to Soil treatment herbicidal activity, Cocklebur: 0 (no control); 100 (complete control); settings: 50 g ai/ha, scale 0 (no control) to 100 (complete control)
In short: as §1

[14] = tested on: crabgrass; experiment: Herbicidal activity test against upland field weeds (foliar treatment test); settings: 50 g ai/ha, scale 0-100
In short: as §2

[15] = tested on: black nightshade; experiment: as above; parameters: key to Foliar treatment herbicidal activity, black nightshade: 0 (no control); 100 (complete control); settings: 50 g ai/ha, scale 0-100
In short: as §2

[16] = tested on: bindweed; experiment: as above; settings: 50 g ai/ha, scale 0-100
In short: as §2

[17] = tested on: sorghum; experiment: Herbicidal activity test against upland field weeds (soil treatment test); parameters: key to Soil treatment herbicidal activity, Sorghum: 0 (no control); 100 (complete control); settings: 50 g ai/ha, scale 0 (no control) to 100 (complete control)
In short: as §1

[18] = tested on: indian jointvetch; experiment: as above; parameters: key to Soil treatment herbicidal activity, Indian jointvetch: 0 (no control); 100 (complete control); settings: 50 g ai/ha, scale 0 (no control) to 100 (complete control)
In short: as §1

[19] = tested on: velvetleaf; experiment: Herbicidal activity test against upland field weeds (foliar treatment test); settings: 50 g ai/ha
In short: as §2

[20] = tested on: crabgrass; experiment: Herbicidal activity test against upland field weeds (soil treatment test); parameters: key to Soil treatment herbicidal activity, Crabgrass: 0 (no control); 100 (complete control); settings: 50 g ai/ha, scale 0 (no control) to 100 (complete control)
In short: as §1

Row | SMILES | Soil treatment herbicidal activity, barnyard grass [1] | Soil treatment herbicidal activity, quack grass [2] | Foliar treatment herbicidal activity, quack grass [5] | Foliar treatment herbicidal activity, Indian jointvetch [8] | Soil treatment herbicidal activity, black nightshade [10] | Foliar treatment herbicidal activity, barnyard grass [11] | Foliar treatment herbicidal activity, Sorghum [12] | Foliar treatment herbicidal activity, black nightshade [15] | Soil treatment herbicidal activity, Sorghum [17] | Soil treatment herbicidal activity, Indian jointvetch [18] | also measured
1 | Cn1nnc(C[S+]([O-])Cc2nc(C(F)F)ccc2C(=O)Nc2nnnn2C)n1 (stereo not shown) [Compound No. 2-111, 6-(difluoromethyl)-N-(1-methyl-1H-tetrazol-1-yl)-2-((((2-methyl-2H-tetrazol-5-yl)methyl)sulfinyl)methyl)nicotinamide] | 0 | 0 | 0 | 95 | 90 | 100 | 70 | 100 | 0 | 0 | Foliar treatment herbicidal activity, Fall panicum [3]: 95; Soil treatment herbicidal activity, Bindweed [4]: 0; Soil treatment herbicidal activity, velvet leaf [6]: 0; Foliar treatment herbicidal activity, Cocklebur [7]: 100; Soil treatment herbicidal activity, Fall panicum [9]: 0; Soil treatment herbicidal activity, Cocklebur [13]: 0; Foliar treatment herbicidal activity, Crabgrass [14]: 98; Foliar treatment herbicidal activity, Bindweed [16]: 98; Foliar treatment herbicidal activity, velvet leaf ([19]; scale 0-100): 80; Soil treatment herbicidal activity, Crabgrass [20]: 0
2 | Cc1cc(C(=O)Nc2nnnn2C)c(OCc2nnnn2C)nc1C(F)(F)F [Compound No. 1-17, 5-methyl-N-(1-methyl-1H-tetrazol-5-yl)-2-((1-methyl-1H-tetrazol-5-yl)methoxy)-6-(trifluoromethyl)nicotinamide] | 0 | 0 | 0 | 0 | 100 | 0 | 0 | 100 | 0 | 0 | pest or weed control at 50 g/ha ([3]; Panicum dichotomiflorum): 20%; pest or weed control at 50 g/ha [4]: 20%; pest or weed control at 50 g/ha ([6]; Abutilon theophrasti, read-out: Soil treatment herbicidal activity, velvet leaf): 30%; pest or weed control at 50 g/ha ([7]; Xanthium strumarium): 40%; pest or weed control at 50 g/ha ([9]; Panicum dichotomiflorum): 20%; pest or weed control at 50 g/ha ([13]; Xanthium strumarium): 40%; pest or weed control at 50 g/ha ([14]; Digitaria sanguinalis): 20%; pest or weed control at 50 g/ha [16]: 20%; pest or weed control at 50 g/ha ([19]; Abutilon theophrasti, scale 0-100, read-out: Foliar treatment herbicidal activity, velvet leaf): 30%; pest or weed control at 50 g/ha ([20]; Digitaria sanguinalis): 20%
